Measurements reported in patent US8664384B2, “N6-(ferrocenmethyl)quinazolin-2,4,6-triamina (H2) and the derivatives and prodrugs thereof as antileishmanial, antiprotozoal, antiparasitic and antimicrobial agents” (priority 2010, dated 2014).
Where two headings read alike, the source gives them in different places.

How the values were obtained:
[1] = tested on: Leishmania mexicana MNYC/BZ/62/M379 reference strain; format: cell-based
Method: FIG. 3: A plot showing the H2 prodrug activity toward the in vitro growth of Leishmania Mexicana. To obtain a higher sensitivity in this experiment, the MNYC/BZ/62/M379 reference strain, which has a higher sensitivity to H2 than does MHOM/MX/01/Tab3, was used. The number of parasites/ml was determined at 72 hours of incubation using 100 mM of each compound in four replicates. The culture conditions were the same as described in FIG. 1.
The following is a list of Leishmania mexicana growth inhibition activity by the prodrugs compared to H2 and a control.

[2] = tested on: Leishmania mexicana strain MHOM/MX/01/Tab3; assay: in vitro growth of Leishmania mexicana, parasite count in Neubauer chamber; format: cell-based
Method: FIG. 1: The biological activity of H2 toward the in vitro growth of Leishmania mexicana strain MHOM/MX/01/Tab3. A growth curve collected after 72 hours of parasite cultivation in a Neubauer chamber in the presence of the H2 is shown. The H2 concentration is shown on the horizontal axis, whereas the number of parasites/ml is shown on the vertical axis. The experiment was performed at room temperature using high-glucose Dulbecco's Modified Eagle's Medium with 10% fetal bovine serum.
FIG. 2: Photograph obtained using an inverted microscope showing the inhibition of Leishmania growth by H2. The parasite culture shown in the left image was grown under the same conditions described in FIG. 1 but with the absence of H2.
At greater than 5 μg/ml, H2 is lethal to Leishmania in less than 5 hours. The in vitro effect is apparent at 30 minutes after application. The parasite structure is modified such that it loses its characteristic form, loses refringence, becomes spherical, and is incapable of multiplying. H2 has a CL50 of 2.6 μm/ml for the Leishmania mexicana MHOM/MX/01/Tab3 strain. The mechanism of cellular damage could not be identified by means of annexin for concentrations greater than 10 μg/ml; it is thought that a necrosis process rather than apoptosis is likely involved.

[3] = tested on: Leishmania mexicana cultures (Tab3 or M379 strain); assay: elimination of parasites in Leishmania mexicana cultures; format: cell-based; settings: 3 μg/ml; 10^6 parasites/ml; Dulbecco's medium with 4.5 mg/mL glucose and 10% fetal bovine serum
Method: H2 (3 μg/ml) eliminates more than 90% of the parasites in Leishmania mexicana cultures (Tab3 or M379 strain) with 10^6 parasites/ml in Dulbecco's medium modified with 4.5 mg/mL glucose and 10% fetal bovine serum.

murine cells = assay: in vitro cytotoxicity against murine cells; format: cell-based; settings: in vitro studies
Description: (§1) Cytotoxicity against murine cells was not found in in vitro studies or in vivo studies using oral, parenteral, or dermal administration in mice.

mice = assay: in vivo toxicity studies in mice; settings: oral, parenteral, or dermal administration in mice
Description: as §1

[4] = tested on: microorganisms, parasites, and protozoa, including members of the Leishmania genus; assay: antimicrobial, antiparasitic and leishmanicide activity (general statement); format: cell-based; settings: from 0.1 μg/ml to greater than 100 μg/ml
Method: The N^6-(ferrocenmethyl)quinazoline-2,4,6-triamine compound, which we refer to as H2, presents antimicrobial, antiparasitic, and leishmanicide activity from 0.1 μg/ml to greater than 100 μg/ml. H2 can be used in the treatment of infections caused by microorganisms, parasites, and protozoa, including members of the Leishmania genus in particular.

| Compound | % of Leishmania Growth Inhibition [1] [%] | effect on parasite culture (inverted microscope, FIG. 2) ([2]; 1 μg/ml H2, conditions of FIG. 1) | time until lethal to Leishmania ([2]; H2 at greater than 5 μg/ml) | CL50 ([2]; Leishmania mexicana MHOM/MX/01/Tab3 strain) [μm/ml] | speed of killing the total amount of parasites compared to meglumine antimoniate, metronidazole or hydroxyurea ([2]; faster than previously described compounds, at doses ten-fold lower or less) | time at which the in vitro effect is apparent after application ([2]; in vitro) [min] | parasites eliminated [3] | % of Leishmania Growth Inhibition ([1]; 72 hours of incubation, 100 mM of each compound, four replicates, M379 strain (FIG. 3)) [%] | cytotoxicity against murine cells (murine cells) | cytotoxicity in vivo (mice) | concentration at which antimicrobial, antiparasitic, and leishmanicide activity is presented [4] [µg/mL] |
| --- | --- | --- | --- | --- | --- | --- | --- | --- | --- | --- | --- |
| [Fe+2].c1cc[cH-]c1.c1ccc(NC[c-]2cccc2)cc1 [FBC, N-(ferrocenmethyl)aniline, reference compound] | 32 |  |  |  |  |  |  |  |  |  |  |
| N^6-(ferrocenmethyl)quinazoline-2,4,6-triamine [Compound H2] |  | clear lack of growth and destruction of the parasite | less than 5 hours | 2.6 | up to 10 fold | 30 | more than 90% | 100 | not found | not found | ≥ 0.1 |
